Key:
Assay in all cases: relative viability (nuclei count vs DMSO), 5 days (fraction); higher = more cells survive
[1] = test system: NCI-H2347
In short: (§1)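 The day after seeding in 1536-well plates, lung cancer cell lines were treated by pin tool with a single drug, or with a fixed anchor-drug dose together with five library-drug doses (not always all listed) in √10 steps. After 5 days, a combined fix-and-stain solution (final 0.05% Triton X-100, 1% formaldehyde, 1 ug/ml Hoechst) was added. Nuclei counted on 4× images gave relative viability as treated counts over vehicle counts, reported as the median of duplicate plates.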

[2] = test system: HARA
In short: as §1

[3] = test system: NCI-H1651
In short: as §1

[4] = test system: NCI-H520
In short: as §1

[5] = test system: NCI-H2405
In short: as §1

[6] = test system: NCI-H647
In short: as §1

[7] = test system: NCI-H522
In short: as §1

[8] = test system: LK-2
In short: as §1

[9] = test system: NCI-H1650
In short: as §1

[10] = test system: COR-L23
In short: as §1

[11] = test system: NCI-H1793
In short: as §1

**Q.** Which relative viability ([1]; first compound 0.2 µM) does the source give for `Cc1csc(=NC2CCCCC2)n1/N=C/c1ccc(O)c(O)c1O` [MIM1] + CCNC(=O)c1noc(-c2cc(C(C)C)c(O)cc2O)c1-c1ccc(CN2CCOCC2)cc1 [Luminespib] (partner 0.01 µM) here?
**A.** Its relative viability is 0.496.

**Q.** And the relative viability ([1]; first compound 0.6325 µM)?
**A.** Its relative viability is 0.403.

**Q.** What about the relative viability ([1]; first compound 2 µM) of the same compound?
**A.** Its relative viability is 0.236.

**Q.** And the relative viability ([1]; first compound 6.325 µM)?
**A.** The relative viability was 0.346.

**Q.** What about the relative viability ([1]; first compound 20 µM) of the same compound?
**A.** The relative viability was 0.334.

**Q.** What about the relative viability ([2]; first compound 0.2 µM) of the same compound?
**A.** The relative viability was 0.866.

**Q.** What about the relative viability ([2]; first compound 2 µM) of the same compound?
**A.** Its relative viability is 0.776.

**Q.** What about the relative viability ([2]; first compound 6.325 µM) of the same compound?
**A.** The relative viability was 0.251.

**Q.** And the relative viability ([2]; first compound 20 µM)?
**A.** Its relative viability is 0.0856.

**Q.** And the relative viability ([3]; first compound 0.2 µM)?
**A.** Its relative viability is 0.876.

**Q.** And the relative viability ([3]; first compound 0.6325 µM)?
**A.** Its relative viability is 0.785.

**Q.** And the relative viability ([3]; first compound 2 µM)?
**A.** The relative viability was 0.617.

**Q.** What about the relative viability ([3]; first compound 6.325 µM) of the same compound?
**A.** Its relative viability is 0.67.

**Q.** What about the relative viability ([3]; first compound 20 µM) of the same compound?
**A.** Its relative viability is 0.495.

**Q.** And the relative viability ([4]; first compound 0.2 µM)?
**A.** Its relative viability is 0.208.

**Q.** What about the relative viability ([4]; first compound 0.6325 µM) of the same compound?
**A.** The relative viability was 0.259.

**Q.** What about the relative viability ([4]; first compound 2 µM) of the same compound?
**A.** The relative viability was 0.178.

**Q.** And the relative viability ([4]; first compound 6.325 µM)?
**A.** The relative viability was 0.274.

**Q.** And the relative viability ([4]; first compound 20 µM)?
**A.** Its relative viability is 0.257.

**Q.** And the relative viability ([5]; first compound 0.2 µM)?
**A.** Its relative viability is 0.68.

**Q.** And the relative viability ([5]; first compound 0.6325 µM)?
**A.** Its relative viability is 0.92.

**Q.** And the relative viability ([5]; first compound 2 µM)?
**A.** Its relative viability is 0.654.

**Q.** What about the relative viability ([5]; first compound 6.325 µM) of the same compound?
**A.** The relative viability was 0.543.

**Q.** And the relative viability ([5]; first compound 20 µM)?
**A.** The relative viability was 0.403.

**Q.** And the relative viability ([6]; first compound 0.2 µM)?
**A.** The relative viability was 0.147.

**Q.** And the relative viability ([6]; first compound 0.6325 µM)?
**A.** Its relative viability is 0.271.

**Q.** What about the relative viability ([6]; first compound 2 µM) of the same compound?
**A.** Its relative viability is 0.18.

**Q.** What about the relative viability ([6]; first compound 6.325 µM) of the same compound?
**A.** Its relative viability is 0.198.

**Q.** What about the relative viability ([6]; first compound 20 µM) of the same compound?
**A.** Its relative viability is 0.0924.

**Q.** And the relative viability ([7]; first compound 0.2 µM)?
**A.** The relative viability was 1.23.

**Q.** And the relative viability ([7]; first compound 0.6325 µM)?
**A.** The relative viability was 1.05.

**Q.** What about the relative viability ([7]; first compound 2 µM) of the same compound?
**A.** The relative viability was 1.03.

**Q.** And the relative viability ([7]; first compound 6.325 µM)?
**A.** The relative viability was 1.19.

**Q.** And the relative viability ([7]; first compound 20 µM)?
**A.** The relative viability was 0.494.

**Q.** What about the relative viability ([8]; first compound 0.2 µM) of the same compound?
**A.** The relative viability was 0.16.

**Q.** And the relative viability ([8]; first compound 2 µM)?
**A.** The relative viability was 0.169.

**Q.** And the relative viability ([8]; first compound 6.325 µM)?
**A.** The relative viability was 0.195.

**Q.** What about the relative viability ([8]; first compound 20 µM) of the same compound?
**A.** Its relative viability is 0.171.

**Q.** What about the relative viability ([9]; first compound 0.2 µM) of the same compound?
**A.** The relative viability was 0.223.

**Q.** And the relative viability ([9]; first compound 0.6325 µM)?
**A.** Its relative viability is 0.189.

**Q.** What about the relative viability ([9]; first compound 2 µM) of the same compound?
**A.** Its relative viability is 0.221.

**Q.** What about the relative viability ([9]; first compound 6.325 µM) of the same compound?
**A.** The relative viability was 0.19.

**Q.** And the relative viability ([9]; first compound 20 µM)?
**A.** Its relative viability is 0.22.

**Q.** And the relative viability ([10]; first compound 0.2 µM)?
**A.** The relative viability was 0.555.

**Q.** And the relative viability ([10]; first compound 0.6325 µM)?
**A.** The relative viability was 0.75.

**Q.** And the relative viability ([10]; first compound 2 µM)?
**A.** The relative viability was 0.7.

**Q.** What about the relative viability ([10]; first compound 6.325 µM) of the same compound?
**A.** The relative viability was 0.469.

**Q.** What about the relative viability ([10]; first compound 20 µM) of the same compound?
**A.** Its relative viability is 0.321.

**Q.** And the relative viability ([11]; first compound 0.2 µM)?
**A.** Its relative viability is 0.187.

**Q.** And the relative viability ([11]; first compound 2 µM)?
**A.** Its relative viability is 0.188.

**Q.** And the relative viability ([11]; first compound 6.325 µM)?
**A.** Its relative viability is 0.162.

**Q.** And the relative viability ([11]; first compound 20 µM)?
**A.** Its relative viability is 0.138.
